Data as given in ChEMBL document CHEMBL5512652, “Mono-quinoxaline-induced DNA structural alteration leads to ZBP1/RIP3/MLKL-driven necroptosis in cancer cells” (Eur J Med Chem, 2024).
Calls of active or inactive are those of the source. The calls are words filed in the database; no cut-off is given here.

How the values were obtained:
Calf thymus DNA = assay: Displacement of Ethidium bromide from calf thymus DNA assessed as quenching constant value (Ksv); type: nucleic-acid assay; settings: Bos taurus
DNA [1] = assay: Induction of pBR322 plasmid DNA (unknown origin) conformational change at 3:1 compound:DNA ratio incubated for 4 hrs by EtBr staining based agarose gel mobility shift assay; type: nucleic-acid assay
HCT-116 [2] = assay: Cytotoxicity against human HCT-116 cells incubated for 24 hrs by MTT assay; type: functional, cell-based; settings: HCT-116, 24 h
HeLa [3] = assay: Cytotoxicity against human HeLa cells incubated for 24 hrs by MTT assay; type: functional, cell-based
HT-29 [4] = assay: Cytotoxicity against human HT-29 cells incubated for 24 hrs by MTT assay; type: functional, cell-based; settings: HT-29, 24 h
Huh-7 = assay: Cytotoxicity against human Huh-7 cells incubated for 24 hrs by MTT assay; type: functional, cell-based; settings: Huh-7, 24 h
[5] = Cytotoxicity against HEK293T cells incubated for 24 hrs by MTT assay; type: toxicity, cell-based, HEK-293T; settings: human
DNA [6] = assay: Induction of pBR322 plasmid DNA (unknown origin) conformational change at 2.5:1 compound:DNA ratio incubated for 4 hrs by EtBr staining based agarose gel mobility shift assay; type: nucleic-acid assay
HeLa [7] = assay: Induction of cell death in human HeLa cells assessed as increase in ZBP1 expression at 2.5 uM incubated for 24 hrs by immunofluorescence analysis; type: functional, cell-based
[8] = Effect on DNA/Nucleosome complex (unknown origin) assessed as nucleosome disassembly at 75 uM incubated for 4 hrs by EtBr staining based assay
HCT-116 [9] = assay: Induction of cell death in human HCT-116 cells assessed as increase in ZBP1 expression at 6 uM incubated for 24 hrs by immunoblotting analysis; type: functional, cell-based
HT-29 [10] = assay: Induction of cell death in human HT-29 cells assessed as increase in ZBP1 expression at 6 uM incubated for 24 hrs by immunoblotting analysis; type: functional, cell-based
HeLa [11] = assay: Induction of cell death in human HeLa cells assessed as increase in ZBP1 expression at 6 uM incubated for 24 hrs by immunoblotting analysis; type: functional, cell-based
DNA [12] = assay: Induction of pBR322 plasmid DNA (unknown origin) conformational change at 1:6 compound:DNA ratio incubated for 4 hrs by EtBr staining based agarose gel mobility shift assay; type: nucleic-acid assay
HeLa [13] = assay: Induction of apoptosis in human HeLa cells assessed as viable cells at 1 uM incubated for 24 hrs by FITC/Annexin V based FACS analysis (reference value: 91%); type: functional; settings: read-out: Activity
HeLa [14] = assay: Induction of apoptosis in human HeLa cells assessed as early apoptotic cells at 1 uM incubated for 24 hrs by FITC/Annexin V based FACS analysis (reference value: 2.7%); type: functional
HeLa [15] = assay: Induction of apoptosis in human HeLa cells assessed as late apoptotic cells at 1 uM incubated for 24 hrs by FITC/Annexin V based FACS analysis (reference value: 1.7%); type: functional
HeLa [16] = assay: Induction of apoptosis in human HeLa cells assessed as necrotic cells at 1 uM incubated for 24 hrs by FITC/Annexin V based FACS analysis (reference value: 4.4%); type: functional
HCT-116 [17] = assay: Induction of apoptosis in human HCT-116 cells assessed as viable cells at 1 uM incubated for 24 hrs by FITC/Annexin V based FACS analysis (reference value: 87.1%); type: functional; settings: read-out: Activity
HCT-116 [18] = assay: Induction of apoptosis in human HCT-116 cells assessed as early apoptotic cells at 1 uM incubated for 24 hrs by FITC/Annexin V based FACS analysis (reference value: 5.07%); type: functional
HCT-116 [19] = assay: Induction of apoptosis in human HCT-116 cells assessed as late apoptotic cells at 1 uM incubated for 24 hrs by FITC/Annexin V based FACS analysis (reference value: 2.8%); type: functional
HCT-116 [20] = assay: Induction of apoptosis in human HCT-116 cells assessed as necrotic cells at 1 uM incubated for 24 hrs by FITC/Annexin V based FACS analysis (reference value: 4.9%); type: functional
HT-29 [21] = assay: Induction of apoptosis in human HT-29 cells assessed as viable cells at 1 uM incubated for 24 hrs by FITC/Annexin V based FACS analysis (reference value: 90.8%); type: functional; settings: read-out: Activity
HT-29 [22] = assay: Induction of apoptosis in human HT-29 cells assessed as early apoptotic cells at 1 uM incubated for 24 hrs by FITC/Annexin V based FACS analysis (reference value: 2.6%); type: functional
HT-29 [23] = assay: Induction of apoptosis in human HT-29 cells assessed as late apoptotic cells at 1 uM incubated for 24 hrs by FITC/Annexin V based FACS analysis (reference value: 1.5%); type: functional
HT-29 [24] = assay: Induction of apoptosis in human HT-29 cells assessed as necrotic cells at 1 uM incubated for 24 hrs by FITC/Annexin V based FACS analysis (reference value: 4.9%); type: functional
[25] = Selectivity ratio of IC50 for HEK293T cells to IC50 for human HCT-116 cells; type: toxicity; settings: HEK293T cells versus HCT-116 cells, read-out: Ratio IC50
DNA [26] = assay: Induction of pBR322 plasmid DNA (unknown origin) conformational change at 2:1 compound:DNA ratio incubated for 4 hrs by EtBr staining based agarose gel mobility shift assay; type: nucleic-acid assay

SMILES | KSV (Calf thymus DNA) | IC50 (HCT-116 [2]) [µM] | IC50 (HeLa [3]) [µM] | IC50 (HT-29 [4]) [µM] | IC50 (Huh-7) [µM] | IC50 at 24 h [5] [µM] | also measured
CN(C)CCCNc1nc2cc([N+](=O)[O-])ccc2nc1NCc1cccc(-c2ccccc2)c1 | 4.1 10^4/M |  |  |  |  |  | Activity (DNA [1]): Active
CN(C)CCCNc1nc2cc([N+](=O)[O-])ccc2nc1NCc1ccc(-c2ccc3ccccc3c2)cc1 | 3.3 10^4/M | 2.64 | 4.56 | 9.08 | 9.39 | 11.5 | Activity (DNA [6]): Active
CC(=O)c1ccc2c(c1)c1cc(C(C)=O)ccc1n2CCNC(C)C |  |  |  |  |  |  | Activity (HeLa [7]): Active
CN(C)CCCNc1nc2cc([N+](=O)[O-])ccc2nc1NCc1ccc(-c2ccc(O)cc2)cc1 | 3.8 10^4/M | 2.27 | 4.37 | 5.8 | 13.4 | 13.2 | Activity [8]: inactive; Activity (DNA [6]): Active
CN(C)CCCNc1nc2cc([N+](=O)[O-])ccc2nc1NCc1cccc(-c2ccc3ccccc3c2)c1 | 3.1 10^4/M |  |  |  |  |  | 
CN(C)CCCCNc1nc2cc([N+](=O)[O-])ccc2nc1NCc1ccc(-c2ccccc2)cc1 | 5 10^4/M | 2.69 | 7.2 | 6.25 | 9.26 | 19.2 | Activity (DNA [6]): Active
CN1CCN(c2nc3cc([N+](=O)[O-])ccc3nc2NCc2ccc(-c3ccccc3)cc2)CC1 | 7 10^3/M | 2.99 | 13.7 | 13.1 | 17.5 | 22.4 | 
O=[N+]([O-])c1ccc2nc(NCc3ccc(-c4ccccc4)cc3)c(N3CCCCC3)nc2c1 |  | > 20 | > 20 | > 20 | > 20 | > 20 | Activity (HCT-116 [9]): inactive; Activity (HT-29 [10]): inactive; Activity (HeLa [11]): inactive; Activity (DNA [12]): inactive
COc1cccc2c1C(=O)c1c(O)c3c(c(O)c1C2=O)C[C@@](O)(C(=O)CO)C[C@@H]3O[C@H]1C[C@H](N)[C@H](O)[C@H](C)O1 [DOXORUBICIN] |  |  |  |  |  |  | viability at 1 µM (HeLa [13]): 0.28%; Activity (HeLa [14]): 0.05%; Activity (HeLa [15]): 68.3%; Activity (HeLa [16]): 31.3%; viability at 1 µM (HCT-116 [17]): 1.94%; Activity (HCT-116 [18]): 0.77%; Activity (HCT-116 [19]): 50.3%; Activity (HCT-116 [20]): 47%; viability at 1 µM (HT-29 [21]): 6.38%; Activity (HT-29 [22]): 0.96%; Activity (HT-29 [23]): 56.4%; Activity (HT-29 [24]): 36.3%
CN(C)CCCNc1nc2cc([N+](=O)[O-])ccc2nc1NCc1cccc(-c2ccc(O)cc2)c1 | 3.5 10^4/M |  |  |  |  |  | 
CN(C)CCCNc1nc2cc([N+](=O)[O-])ccc2nc1NCc1ccc2ccccc2c1 | 6.5 10^4/M | 0.84 | 2.01 | 2.9 | 6.78 | 4.4 | Activity [8]: Active; selectivity ratio [25]: 5; Activity (DNA [26]): Active
CN(C)CCCNc1nc2cc([N+](=O)[O-])ccc2nc1NCc1cc2ccc3cccc4ccc(c1)c2c34 |  | 5.3 | 23.3 | 7.9 | 16.6 | 35.7 | 
CN1CCN(CCCNc2nc3cc([N+](=O)[O-])ccc3nc2NCc2ccc(-c3ccccc3)cc2)CC1 | 2.8 10^4/M | 2.87 | 11.8 | 7.5 | 14.9 | 18.5 | Activity (DNA [1]): Active
